Test results reported in the kinase profiling compilation of Christmann-Franck et al. (2016).

Legend:
Test in all cases: radiometric filter-binding kinase assay, Kinase HotSpot
[1] = target: AXL (human) (UniProt P30530); settings: compound 0.5 µM; ATP 10 µM
[2] = target: CAMK2A (human) (UniProt Q9UQM7); settings: compound 0.5 µM; ATP 10 µM
[3] = target: CDK1 CCNA2 (human) (UniProt P06493+P20248); settings: compound 0.5 µM
[4] = target: CDK4 CCND3 (human) (UniProt P30281+P11802); settings: compound 0.5 µM
[5] = target: CDK6 CCND3 (human) (UniProt P30281+Q00534); settings: compound 0.5 µM
Sequence of CDK6 CCND3 (human) (P30281 whole entry, looked up): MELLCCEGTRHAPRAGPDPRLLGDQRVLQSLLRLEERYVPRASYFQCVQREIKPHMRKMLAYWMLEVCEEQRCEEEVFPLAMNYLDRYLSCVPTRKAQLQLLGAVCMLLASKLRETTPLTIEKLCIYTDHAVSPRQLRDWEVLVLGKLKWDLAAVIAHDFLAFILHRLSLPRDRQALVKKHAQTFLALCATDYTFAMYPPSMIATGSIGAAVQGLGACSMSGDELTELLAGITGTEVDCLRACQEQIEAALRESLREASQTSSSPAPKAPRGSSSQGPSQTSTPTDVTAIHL
Sequence of CDK6 CCND3 (human) (Q00534 whole entry, looked up): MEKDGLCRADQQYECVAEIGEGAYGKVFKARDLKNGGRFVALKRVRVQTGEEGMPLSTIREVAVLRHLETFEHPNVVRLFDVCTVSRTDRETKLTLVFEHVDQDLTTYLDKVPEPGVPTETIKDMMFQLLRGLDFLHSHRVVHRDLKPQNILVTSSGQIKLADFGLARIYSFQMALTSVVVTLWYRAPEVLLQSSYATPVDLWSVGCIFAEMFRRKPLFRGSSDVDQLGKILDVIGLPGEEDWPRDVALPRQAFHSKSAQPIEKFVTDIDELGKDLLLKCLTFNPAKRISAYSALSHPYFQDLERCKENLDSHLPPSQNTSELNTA

[6] = target: CDK9 CCNT1 (human) (UniProt P50750+O60563); settings: compound 0.5 µM
[7] = target: CHEK1 (human) (UniProt O14757); settings: compound 0.5 µM; ATP 10 µM
[8] = target: CSNK1A1 (human) (UniProt P48729); settings: compound 0.5 µM; ATP 10 µM
[9] = target: CSNK2A2 (human) (UniProt P19784); settings: compound 0.5 µM; ATP 10 µM
Sequence of CSNK2A2 (human) (P19784 whole entry, looked up): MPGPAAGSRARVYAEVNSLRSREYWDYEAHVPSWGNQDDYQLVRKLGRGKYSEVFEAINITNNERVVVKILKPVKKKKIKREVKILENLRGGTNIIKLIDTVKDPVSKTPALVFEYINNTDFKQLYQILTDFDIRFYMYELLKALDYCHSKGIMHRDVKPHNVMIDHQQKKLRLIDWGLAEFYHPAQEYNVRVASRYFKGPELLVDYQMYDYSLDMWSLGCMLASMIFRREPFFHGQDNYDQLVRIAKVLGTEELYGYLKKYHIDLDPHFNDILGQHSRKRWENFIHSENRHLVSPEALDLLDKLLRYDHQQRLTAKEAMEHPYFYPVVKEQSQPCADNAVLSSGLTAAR

[10] = target: EPHA8 (human) (UniProt P29322); settings: compound 0.5 µM; ATP 10 µM
[11] = target: ERBB2 (human) (UniProt P04626); settings: compound 0.5 µM; ATP 10 µM
[12] = target: FER (human) (UniProt P16591); settings: compound 0.5 µM; ATP 10 µM
[13] = target: FLT3 (human) (UniProt P36888); settings: compound 0.5 µM; ATP 10 µM
Sequence of FLT3 (human) (P36888 whole entry, looked up): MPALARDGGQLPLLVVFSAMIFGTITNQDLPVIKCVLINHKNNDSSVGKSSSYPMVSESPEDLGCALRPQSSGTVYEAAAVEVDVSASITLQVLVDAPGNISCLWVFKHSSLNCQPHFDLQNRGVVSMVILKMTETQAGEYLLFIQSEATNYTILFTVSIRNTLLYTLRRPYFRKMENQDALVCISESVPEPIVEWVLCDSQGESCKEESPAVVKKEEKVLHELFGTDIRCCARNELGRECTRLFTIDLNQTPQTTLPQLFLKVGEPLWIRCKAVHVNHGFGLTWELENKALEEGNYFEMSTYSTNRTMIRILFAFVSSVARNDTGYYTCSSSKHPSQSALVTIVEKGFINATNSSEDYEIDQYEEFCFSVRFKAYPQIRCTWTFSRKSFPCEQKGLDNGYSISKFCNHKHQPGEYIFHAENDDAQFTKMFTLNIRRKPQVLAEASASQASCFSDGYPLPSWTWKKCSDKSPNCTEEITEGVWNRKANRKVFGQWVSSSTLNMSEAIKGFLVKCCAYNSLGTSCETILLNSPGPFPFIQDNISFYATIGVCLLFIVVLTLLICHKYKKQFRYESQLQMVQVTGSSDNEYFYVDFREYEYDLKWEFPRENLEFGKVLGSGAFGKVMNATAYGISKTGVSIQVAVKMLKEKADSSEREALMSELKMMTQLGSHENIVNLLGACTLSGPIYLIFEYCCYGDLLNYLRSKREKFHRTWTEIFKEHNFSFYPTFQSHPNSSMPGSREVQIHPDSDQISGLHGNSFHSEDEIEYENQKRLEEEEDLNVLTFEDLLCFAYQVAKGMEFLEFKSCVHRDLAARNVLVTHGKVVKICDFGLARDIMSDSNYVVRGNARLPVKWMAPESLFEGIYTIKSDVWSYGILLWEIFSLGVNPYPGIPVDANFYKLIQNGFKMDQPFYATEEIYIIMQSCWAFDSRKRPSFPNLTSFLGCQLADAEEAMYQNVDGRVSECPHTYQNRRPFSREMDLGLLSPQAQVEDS

[14] = target: FYN (human) (UniProt P06241); settings: compound 0.5 µM; ATP 10 µM
[15] = target: GRK4 (human) (UniProt P32298); settings: compound 0.5 µM; ATP 10 µM
[16] = target: GRK5 (human) (UniProt P34947); settings: compound 0.5 µM; ATP 10 µM
[17] = target: GRK6 (human) (UniProt P43250); settings: compound 0.5 µM; ATP 10 µM
[18] = target: GSG2 (human) (UniProt Q8TF76); settings: compound 0.5 µM; ATP 10 µM
[19] = target: GSK3B (human) (UniProt P49841); settings: compound 0.5 µM; ATP 10 µM
[20] = target: MAPK11 (human) (UniProt Q15759); settings: compound 0.5 µM; ATP 10 µM
[21] = target: MAPK12 (human) (UniProt P53778); settings: compound 0.5 µM; ATP 10 µM
[22] = target: MAPK13 (human) (UniProt O15264); settings: compound 0.5 µM; ATP 10 µM
[23] = target: MAPK14 (human) (UniProt Q16539); settings: compound 0.5 µM; ATP 10 µM
[24] = target: MAPK3 (human) (UniProt P27361); settings: compound 0.5 µM; ATP 10 µM
[25] = target: MAPK9 (human) (UniProt P45984); settings: compound 0.5 µM; ATP 10 µM
[26] = target: MARK4 (human) (UniProt Q96L34); settings: compound 0.5 µM; ATP 10 µM
[27] = target: MET (human) (UniProt P08581); settings: compound 0.5 µM; ATP 10 µM
[28] = target: PBK (human) (UniProt Q96KB5); settings: compound 0.5 µM; ATP 10 µM
Sequence of PBK (human) (Q96KB5 whole entry, looked up): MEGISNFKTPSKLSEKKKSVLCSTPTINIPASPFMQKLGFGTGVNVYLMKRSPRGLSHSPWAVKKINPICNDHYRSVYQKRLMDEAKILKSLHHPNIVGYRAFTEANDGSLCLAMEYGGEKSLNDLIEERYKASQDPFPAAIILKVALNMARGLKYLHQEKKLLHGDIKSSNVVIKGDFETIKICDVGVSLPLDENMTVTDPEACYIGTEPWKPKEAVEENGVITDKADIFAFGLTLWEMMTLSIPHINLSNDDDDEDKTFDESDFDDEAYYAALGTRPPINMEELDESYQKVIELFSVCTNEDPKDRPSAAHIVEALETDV

[29] = target: PIM3 (human) (UniProt Q86V86); settings: compound 0.5 µM; ATP 10 µM
[30] = target: PRKCG (human) (UniProt P05129); settings: compound 0.5 µM; ATP 10 µM
[31] = target: PRKCI (human) (UniProt P41743); settings: compound 0.5 µM; ATP 10 µM
[32] = target: PTK2B (human) (UniProt Q14289); settings: compound 0.5 µM; ATP 10 µM
[33] = target: RAF1 (human) (UniProt P04049); settings: compound 0.5 µM; ATP 10 µM
Sequence of RAF1 (human) (P04049 whole entry, looked up): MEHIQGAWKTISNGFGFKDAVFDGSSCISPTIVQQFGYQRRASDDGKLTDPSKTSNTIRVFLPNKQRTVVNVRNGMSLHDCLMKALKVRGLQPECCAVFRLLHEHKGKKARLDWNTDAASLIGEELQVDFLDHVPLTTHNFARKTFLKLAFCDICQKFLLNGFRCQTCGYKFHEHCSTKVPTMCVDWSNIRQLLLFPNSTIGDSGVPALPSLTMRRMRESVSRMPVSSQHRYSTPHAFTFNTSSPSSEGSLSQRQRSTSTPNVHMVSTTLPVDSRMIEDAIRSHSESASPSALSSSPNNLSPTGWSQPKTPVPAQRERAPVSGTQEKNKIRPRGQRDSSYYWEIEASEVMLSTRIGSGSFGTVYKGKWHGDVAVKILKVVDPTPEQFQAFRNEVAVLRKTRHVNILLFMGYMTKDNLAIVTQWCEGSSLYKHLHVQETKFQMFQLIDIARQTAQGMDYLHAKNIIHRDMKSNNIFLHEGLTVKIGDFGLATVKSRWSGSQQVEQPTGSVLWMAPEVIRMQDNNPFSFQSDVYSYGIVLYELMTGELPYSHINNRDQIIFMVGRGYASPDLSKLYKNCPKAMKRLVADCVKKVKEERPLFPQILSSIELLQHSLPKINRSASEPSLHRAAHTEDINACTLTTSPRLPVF

[34] = target: RET (human) (UniProt P07949); settings: compound 0.5 µM; ATP 10 µM
[35] = target: RPS6KA4 KD2 (human) (UniProt O75676); settings: compound 0.5 µM; ATP 10 µM
[36] = target: RPS6KA5 KD2 (human) (UniProt O75582); settings: compound 0.5 µM; ATP 10 µM
[37] = target: SGK2 (human) (UniProt Q9HBY8); settings: compound 0.5 µM; ATP 10 µM
[38] = target: SGK3 (human) (UniProt Q96BR1); settings: compound 0.5 µM; ATP 10 µM
[39] = target: STK24 (human) (UniProt Q9Y6E0); settings: compound 0.5 µM; ATP 10 µM
Sequence of STK24 (human) (Q9Y6E0 whole entry, looked up): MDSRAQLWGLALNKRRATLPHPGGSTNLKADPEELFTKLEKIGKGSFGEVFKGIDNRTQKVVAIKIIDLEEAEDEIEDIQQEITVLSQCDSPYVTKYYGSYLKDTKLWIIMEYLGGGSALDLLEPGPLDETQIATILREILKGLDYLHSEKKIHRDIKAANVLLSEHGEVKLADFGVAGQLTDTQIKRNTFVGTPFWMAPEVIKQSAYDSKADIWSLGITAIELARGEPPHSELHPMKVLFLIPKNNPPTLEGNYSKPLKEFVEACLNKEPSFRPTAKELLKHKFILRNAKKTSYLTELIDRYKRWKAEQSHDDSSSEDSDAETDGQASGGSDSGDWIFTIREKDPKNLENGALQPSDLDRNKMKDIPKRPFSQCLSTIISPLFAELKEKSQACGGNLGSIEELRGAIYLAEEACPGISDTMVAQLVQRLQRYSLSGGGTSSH

[40] = target: STK4 (human) (UniProt Q13043); settings: compound 0.5 µM; ATP 10 µM
[41] = target: TYK2 JH1 catalytic (human) (UniProt P29597); settings: compound 0.5 µM; ATP 10 µM
Sequence of TYK2 JH1 catalytic (human) (P29597 whole entry, looked up): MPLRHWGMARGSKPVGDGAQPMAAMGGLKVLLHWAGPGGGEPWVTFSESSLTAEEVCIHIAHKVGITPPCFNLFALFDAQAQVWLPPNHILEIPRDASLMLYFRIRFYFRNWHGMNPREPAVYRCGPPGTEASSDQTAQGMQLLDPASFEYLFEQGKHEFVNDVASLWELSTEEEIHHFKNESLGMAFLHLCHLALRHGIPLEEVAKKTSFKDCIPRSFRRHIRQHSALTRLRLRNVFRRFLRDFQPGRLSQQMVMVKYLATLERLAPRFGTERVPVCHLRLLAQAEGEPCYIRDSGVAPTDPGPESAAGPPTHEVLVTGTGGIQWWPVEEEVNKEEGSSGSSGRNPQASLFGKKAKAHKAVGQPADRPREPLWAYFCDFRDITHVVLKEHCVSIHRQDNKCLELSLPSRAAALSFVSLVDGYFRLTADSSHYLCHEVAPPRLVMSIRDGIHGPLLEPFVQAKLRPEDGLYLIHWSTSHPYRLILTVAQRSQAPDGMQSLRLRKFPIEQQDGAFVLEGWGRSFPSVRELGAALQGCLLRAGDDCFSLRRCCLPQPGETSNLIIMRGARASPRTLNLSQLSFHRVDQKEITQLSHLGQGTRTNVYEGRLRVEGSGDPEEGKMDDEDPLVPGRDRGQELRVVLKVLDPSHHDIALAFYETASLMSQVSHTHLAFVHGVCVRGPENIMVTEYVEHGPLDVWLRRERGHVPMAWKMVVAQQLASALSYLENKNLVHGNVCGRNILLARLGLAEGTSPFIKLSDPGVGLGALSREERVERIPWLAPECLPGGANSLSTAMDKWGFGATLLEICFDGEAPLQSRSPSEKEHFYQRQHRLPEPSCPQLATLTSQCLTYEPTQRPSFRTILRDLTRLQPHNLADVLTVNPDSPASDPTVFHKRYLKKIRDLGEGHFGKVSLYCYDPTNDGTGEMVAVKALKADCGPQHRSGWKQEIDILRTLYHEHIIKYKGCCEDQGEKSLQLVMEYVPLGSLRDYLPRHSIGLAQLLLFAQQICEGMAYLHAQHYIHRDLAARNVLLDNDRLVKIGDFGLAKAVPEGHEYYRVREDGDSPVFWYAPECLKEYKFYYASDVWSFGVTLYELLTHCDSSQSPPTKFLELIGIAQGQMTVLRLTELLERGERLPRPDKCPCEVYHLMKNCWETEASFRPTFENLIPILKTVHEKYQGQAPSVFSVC

[42] = target: VRK1 (human) (UniProt Q99986); settings: compound 0.5 µM; ATP 10 µM

Structure (SMILES): O=c1[nH]c2ccccc2n1C1CCN(Cc2ccc(-c3nc4cc5[nH]cnc5cc4nc3-c3ccccc3)cc2)CC1
- residual activity [1]: 105%
- residual activity [2]: 109%
- residual activity [3]: 102%
- residual activity [4]: 99.7%
- residual activity [5]: 99.1%
- residual activity [6]: 93.2%
- residual activity [7]: 107%
- residual activity [8]: 96%
- residual activity [9]: 101%
- residual activity [10]: 106%
- residual activity [11]: 88.9%
- residual activity [12]: 99.6%
- residual activity [13]: 94.6%
- residual activity [14]: 101%
- residual activity [15]: 104%
- residual activity [16]: 109%
- residual activity [17]: 88%
- residual activity [18]: 106%
- residual activity [19]: 113%
- residual activity [20]: 102%
- residual activity [21]: 93.1%
- residual activity [22]: 102%
- residual activity [23]: 99.7%
- residual activity [24]: 118%
- residual activity [25]: 91.9%
- residual activity [26]: 102%
- residual activity [27]: 102%
- residual activity [28]: 103%
- residual activity [29]: 106%
- residual activity [30]: 92.2%
- residual activity [31]: 97%
- residual activity [32]: 105%
- residual activity [33]: 94.7%
- residual activity [34]: 96.7%
- residual activity [35]: 98.8%
- residual activity [36]: 103%
- residual activity [37]: 112%
- residual activity [38]: 108%
- residual activity [39]: 90.7%
- residual activity [40]: 95.2%
- residual activity [41]: 101%
- residual activity [42]: 98.3%
